Where a SMILES comes first, the peptide text is derived from it. [ ]: non-standard residue; d: D form. The star is where a group is joined. Propanoyl(3-(4-F-phenyl)) = O=C(CCc1ccc(F)cc1)*; NH(2-pyrrolidin-1-ylethyl) = C1CCN(CCN*)C1; dBip = N[C@H](Cc1ccc(-c2ccccc2)cc1)C(=O)O; 1Nal = N[C@@H](Cc1cccc2ccccc12)C(=O)O; d1Nal = N[C@H](Cc1cccc2ccccc12)C(=O)O; NMeY = CN[C@@H](Cc1ccc(O)cc1)C(=O)O; Tic = O=C(O)[C@@H]1Cc2ccccc2CN1; NMeL = CN[C@@H](CC(C)C)C(=O)O; Nicotinoyl = O=C(c1cccnc1)*; Sar = CNCC(=O)O

This assay addresses T1, LH release from rat pituitary cells (Rattus norvegicus, UniProt P30969).
T1 sequence (P30969 1-327): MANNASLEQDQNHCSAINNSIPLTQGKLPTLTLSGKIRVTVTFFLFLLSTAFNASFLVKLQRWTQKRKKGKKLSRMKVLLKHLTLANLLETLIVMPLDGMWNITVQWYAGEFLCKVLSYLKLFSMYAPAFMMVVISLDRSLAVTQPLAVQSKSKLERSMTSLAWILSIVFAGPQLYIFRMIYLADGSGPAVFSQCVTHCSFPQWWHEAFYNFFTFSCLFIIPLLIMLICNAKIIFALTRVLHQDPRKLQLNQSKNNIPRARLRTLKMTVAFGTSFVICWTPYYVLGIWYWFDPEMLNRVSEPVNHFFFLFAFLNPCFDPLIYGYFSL
The experiment in a line: in vitro inhibition of LH release from rat pituitary cells (pA2, vs agonist leuprolide). The format is cell-based. The following applies: negative logarithm of antagonist concentration required to shift the response curve produced by agonist leuprolide to two-fold higher concentration. How it is done:
Representative compounds of the present invention were evaluated in vitro for inhibition of LH release from rat pituitary cells (pA2). Methods for the assay procedures are described by F. Haviv, et al. J. Med. Chem., 32:2340-2344 (1989). Values of pA2 are the negative logarithms of the concentration of the particular antagonist test compound required to shift the response curve produced by the agonist leuprolide to two-fold higher concentration. Typically values of 6.0 or greater are indicative of good LHRH antagonist potency, with values of 7.0 or greater being preferred. Leuprolide LHRH agonist, disclosed and claimed in U.S. Pat. No. 4,005,063, has the structure 5-oxo-Pro1^1 -His^2 […] -Ser^4 -Tyr^5 -D-Leu^6 -Leu^7 -Arg^8 -Pro^9 -NHEt.
For the compound `CC(C)C[C@H](NC(=O)[C@@H](CCCCNC(=O)c1cccnc1)NC(=O)CN(C)C(=O)[C@H](CO)NC(=O)[C@@H](Cc1cccc2ccccc12)NC(=O)CCc1ccc(F)cc1)C(=O)NCCN1CCCC1` [Example 3, 4-F-Phenylpropionyl-D1Nal-Ser-Sar-DLys(Nic)-Leu-NH--(CH2)2 (1-pyrrolidine)] ({Propanoyl(3-(4-F-phenyl))}-[d1Nal]S[Sar][dK](Nicotinoyl)L-{NH(2-pyrrolidin-1-ylethyl)}), the “LHRH Antagonist Activity (pA2)” value worked out at 7.66. As to `CC(C)C[C@H](NC(=O)[C@@H](CCCCNC(=O)c1cccnc1)NC(=O)[C@H](Cc1ccc(O)cc1)NC(=O)[C@H](CO)NC(=O)[C@@H](Cc1cccc2ccccc12)NC(=O)CCc1ccc(F)cc1)C(=O)NCCN1CCCC1` [Example 7, 4-F-Phenylpropiopyl-D1Nal-Ser-Tyr-DLys(Nic)-Leu-NH--(CH2)2 -(1-pyrrolidine)] ({Propanoyl(3-(4-F-phenyl))}-[d1Nal]SY[dK](Nicotinoyl)L-{NH(2-pyrrolidin-1-ylethyl)}), the “LHRH Antagonist Activity (pA2)” value is listed as 9.73.

Turning to `CC(C)C[C@H](NC(=O)[C@@H](CCCCNC(=O)c1cccnc1)NC(=O)[C@H](Cc1ccc(O)cc1)N(C)C(=O)[C@H](CO)NC(=O)[C@@H](Cc1cccc2ccccc12)NC(=O)CCc1ccc(F)cc1)C(=O)NCCN1CCCC1` [Example 1, 4-F-Phenylpropionyl-D1Nal-Ser-NMeTyr-DLys(Nic)-Leu-NH--(CH2)2 -(1-pyrrolidine)] ({Propanoyl(3-(4-F-phenyl))}-[d1Nal]S[NMeY][dK](Nicotinoyl)L-{NH(2-pyrrolidin-1-ylethyl)}), the “LHRH Antagonist Activity (pA2)” value turned out to be 9.91.

For the compound `CC(C)C[C@@H](C(=O)NCCN1CCCC1)N(C)C(=O)CNC(=O)[C@H](Cc1ccc(O)cc1)N(C)C(=O)CNC(=O)[C@@H](Cc1cccc2ccccc12)NC(=O)CCc1ccc(F)cc1` [Example 9, 4-F-Phenylpropionyl-D1Nal-Gly-NMeTyr-Gly-NMeLeu-NH--(CH2)2 -(1-pyrrolidine)] ({Propanoyl(3-(4-F-phenyl))}-[d1Nal]G[NMeY]G[NMeL]-{NH(2-pyrrolidin-1-ylethyl)}), the “LHRH Antagonist Activity (pA2)” value stood at 7.72. On to `CC(C)C[C@H](NC(=O)[C@@H](Cc1ccccc1)NC(=O)[C@H](Cc1ccc(O)cc1)N(C)C(=O)[C@H](CO)NC(=O)[C@@H](Cc1c[nH]c2ccccc12)NC(=O)CCc1ccc(F)cc1)C(=O)NCCN1CCCC1` [Example 15, 4-F-Phenylpropionyl-DTrp-Ser-NMeTyr-DPhe-Leu-NH--(CH2)2 -(1-pyrrolidine)] ({Propanoyl(3-(4-F-phenyl))}-[dW]S[NMeY][dF]L-{NH(2-pyrrolidin-1-ylethyl)}), for which the “LHRH Antagonist Activity (pA2)” value came out at 8.59. With `CC(C)C[C@H](NC(=O)CNC(=O)[C@H](Cc1ccc(O)cc1)N(C)C(=O)[C@H](CO)NC(=O)[C@@H](Cc1cccc2ccccc12)NC(=O)CCc1ccc(F)cc1)C(=O)NCCN1CCCC1` [Example 2, 4-F-Phenylpropionyl-D1Nal-Ser-NMeTyr-Gly-Leu-NH--(CH2)2 -(1pyrrolidine)] ({Propanoyl(3-(4-F-phenyl))}-[d1Nal]S[NMeY]GL-{NH(2-pyrrolidin-1-ylethyl)}) the figure was 9.14; with `CC(C)C[C@H](NC(=O)[C@@H](CCCCNC(=O)c1cccnc1)NC(=O)[C@H](Cc1ccc(O)cc1)N1CC[C@H](NC(=O)[C@@H](Cc2cccc3ccccc23)NC(=O)CCc2ccc(F)cc2)C1=O)C(=O)NCCN1CCCC1` [Example 19, 4-F-Phenylpropionyl-D1Nal-6,7[2-(S-3-amino-2-oxo-pyrrolidin-1-yl)-S-2-(para-hydroxyl)phenylacetyl]-DLys(Nic)-Leu-NH--(CH2)2-(1-pyrrolidine)], 7.89.

As for `CC(C)C[C@@H](C(=O)NCCN1CCCC1)N(C)C(=O)CNC(=O)[C@H](Cc1ccc(O)cc1)N(C)C(=O)[C@H](CO)NC(=O)[C@@H](Cc1cccc2ccccc12)NC(=O)CCc1ccc(F)cc1` [Example 8, 4-F-Phenylpropionyl-D1Nal-Ser-NMeTyr-Gly-NMeLeu-NH--(CH2)2 -(1Pyrrolidine)] ({Propanoyl(3-(4-F-phenyl))}-[d1Nal]S[NMeY]G[NMeL]-{NH(2-pyrrolidin-1-ylethyl)}), the “LHRH Antagonist Activity (pA2)” value was found to be 9.00. With `CC(C)C[C@H](NC(=O)[C@@H](CCCCNC(=O)c1cccnc1)NC(=O)[C@H](Cc1ccc(O)cc1)N(C)C(=O)[C@H](CO)NC(=O)[C@@H](Cc1c[nH]c2ccccc12)NC(=O)CCc1ccc(F)cc1)C(=O)NCCN1CCCC1` [Example 10, 4-F-Phenylpropionyl-DTrp-Ser-NMeTyr-DLys(Nic)-Leu-NH--(CH2)2 -(1-pyrrolidine)] ({Propanoyl(3-(4-F-phenyl))}-[dW]S[NMeY][dK](Nicotinoyl)L-{NH(2-pyrrolidin-1-ylethyl)}) the figure was 8.69; with `CC(C)C[C@H](NC(=O)[C@@H](CCCCNC(=O)c1cccnc1)NC(=O)[C@H](Cc1ccc(O)cc1)N(C)C(=O)[C@H](CO)NC(=O)[C@H](Cc1cccc2ccccc12)NC(=O)CCc1ccc(F)cc1)C(=O)NCCN1CCCC1` [Example 14, 4-F-Phenylpropionyl-1Nal-Ser-NMeTyr-DLys(Nic)-Leu-NH--(CH2)2 -(1-pyrrolidine)] ({Propanoyl(3-(4-F-phenyl))}-[1Nal]S[NMeY][dK](Nicotinoyl)L-{NH(2-pyrrolidin-1-ylethyl)}), 8.68.

With `CC(C)C[C@H](NC(=O)[C@@H](CCCCNC(=O)c1cccnc1)NC(=O)[C@H](Cc1ccc(O)cc1)N(C)C(=O)CNC(=O)[C@@H](Cc1cccc2ccccc12)NC(=O)CCc1ccc(F)cc1)C(=O)NCCN1CCCC1` [Example 6, 4-F-Phenylpropionyl-D1Nal-Gly-NMeTyr-DLys(Nic)-Leu-NH--(CH2)2 -(1-pyrrolidine)] ({Propanoyl(3-(4-F-phenyl))}-[d1Nal]G[NMeY][dK](Nicotinoyl)L-{NH(2-pyrrolidin-1-ylethyl)}), the “LHRH Antagonist Activity (pA2)” value is listed as 8.90. With `CC(C)C[C@H](NC(=O)[C@@H](CCCCNC(=O)c1cccnc1)NC(=O)[C@H](Cc1ccc(O)cc1)N(C)C(=O)[C@@H]1CCCN1C(=O)[C@@H](Cc1cccc2ccccc12)NC(=O)CCc1ccc(F)cc1)C(=O)NCCN1CCCC1` [Example 16, 4-F-Phenylpropionyl-D1Nal-Pro-NMeTyr-DLys(Nic)-Leu-NH--(CH2)2 -(1-Pyrrolidine)] ({Propanoyl(3-(4-F-phenyl))}-[d1Nal]P[NMeY][dK](Nicotinoyl)L-{NH(2-pyrrolidin-1-ylethyl)}) the figure was 8.71. With `CC(C)C[C@H](NC(=O)[C@@H](CCCCNC(=O)c1cccnc1)NC(=O)[C@H](Cc1ccc(O)cc1)N(C)C(=O)[C@H](CO)NC(=O)[C@@H](Cc1ccc(-c2ccccc2)cc1)NC(=O)CCc1ccc(F)cc1)C(=O)NCCN1CCCC1` [Example 11, 4-F-Phenylpropionyl-DBiphe-Ser-NMeTyr-DLys(Nic)-Leu-NH--(CH2)2-(1-pyrrolidine)] ({Propanoyl(3-(4-F-phenyl))}-[dBip]S[NMeY][dK](Nicotinoyl)L-{NH(2-pyrrolidin-1-ylethyl)}) the figure was 7.62; with `CC(C)C[C@H](NC(=O)[C@@H](CCCCNC(=O)c1cccnc1)NC(=O)[C@@H]1Cc2ccccc2CN1C(=O)[C@H](CO)NC(=O)[C@@H](Cc1cccc2ccccc12)NC(=O)CCc1ccc(F)cc1)C(=O)NCCN1CCCC1` [Example 17, 4-F-Phenylpropionyl-D1Nal-Ser-Tic-DLys(Nic)-Leu-NH--(CH2)2 -( 1-pyrrolidine)] ({Propanoyl(3-(4-F-phenyl))}-[d1Nal]S[Tic][dK](Nicotinoyl)L-{NH(2-pyrrolidin-1-ylethyl)}), 9.32.
